Reference: paper PMC4325971, “Sex-Differences in Renal Expression of Selected Transporters and Transcription Factors in Lean and Obese Zucker Spontaneously Hypertensive Fatty Rats” (Journal of Diabetes Research, 2015)

What was measured:
Experiment in all cases: inhibition of [3H]cGMP uptake in OAT2-HEK293 cells
Assay type in all cases: cell-based
[1] = molecular target: T1, human OAT2 (organic anion transporter 2) (Homo sapiens, UniProt Q9Y694); conditions: 500 μM inhibitor, 10 μM cGMP, 5 min, 37°C, pH 7.4
T1 construct: gene SLC22A7; full-length human OAT2 stably transfected in HEK293 cells (PortaCellTec Biosciences)
T1 sequence (Q9Y694 1-548): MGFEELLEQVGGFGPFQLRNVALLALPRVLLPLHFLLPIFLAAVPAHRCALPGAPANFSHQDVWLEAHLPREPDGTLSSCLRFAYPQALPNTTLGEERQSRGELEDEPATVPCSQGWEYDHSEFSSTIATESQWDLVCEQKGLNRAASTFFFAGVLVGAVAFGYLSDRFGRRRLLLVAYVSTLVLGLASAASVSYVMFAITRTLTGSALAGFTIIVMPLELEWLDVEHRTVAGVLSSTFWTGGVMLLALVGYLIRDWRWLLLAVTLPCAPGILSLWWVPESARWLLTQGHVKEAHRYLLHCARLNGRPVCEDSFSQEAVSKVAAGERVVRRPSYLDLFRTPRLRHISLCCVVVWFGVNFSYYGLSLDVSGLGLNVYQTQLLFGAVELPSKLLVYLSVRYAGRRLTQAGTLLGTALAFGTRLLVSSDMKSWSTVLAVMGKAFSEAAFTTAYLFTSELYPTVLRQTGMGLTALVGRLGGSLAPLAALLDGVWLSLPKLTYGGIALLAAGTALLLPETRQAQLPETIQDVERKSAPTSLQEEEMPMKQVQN

[2] = molecular target: T1, human OAT2 (organic anion transporter 2); conditions: read-out: % inhibition at 500 μM
[3] = molecular target: T1, human OAT2 (organic anion transporter 2)

CCOC(=O)[C@H](CCc1ccccc1)N[C@@H](C)C(=O)N1CCC[C@H]1C(=O)O [enalapril]
% inhibition at 500 μM [1]: weak inhibition of OAT2-mediated cGMP uptake by high concentrations of sitagliptin and enalapril

N[C@@H](CC(=O)N1CCn2c(nnc2C(F)(F)F)C1)Cc1cc(F)c(F)cc1F [sitagliptin]
inhibition at 500 µM [2]: ~25%

COc1ccc2c(c1)c(CC(=O)O)c(C)n2C(=O)c1ccc(Cl)cc1 [indomethacin]
% inhibition at 500 μM [1]: OAT2 transport function was abolished by indomethacin

COc1cc(CC(=O)O)ccc1O [homovanillic acid]
% inhibition at 500 μM [1]: significantly decreased in the presence of the dopamine metabolite homovanillate

CCCCNc1cc(C(=O)O)cc(S(N)(=O)=O)c1Oc1ccccc1 [bumetanide]
IC50 [3]: 130 ± 21.8 µM
